The record followed here is patent publication US20050245399A1, “Pyrazole derivatives as herbicidal compositions containing them” (ISHIHARA SANGYO KAISHA, LTD., priority 2004, published 2005).

The subject of the first test is barnyardgrass (Echinochloa crus-galli L.): ECHCG. The experiment in a line: Test Example 1 pre-emergence herbicidal activity, ECHCG. The test is classed as in vivo. The note with it: Rate 63 g a.i./ha, visually observed 20th to 23rd day after application. Put shortly: (§1)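 Percent growth control, rated visually 20–23 d after a pre-emergence spray applied 1 d post-sowing; compound formulated as WP or EC in 500 L/ha water at a predetermined a.i. amount.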
On to `COc1c(Cl)cc(F)c(-c2nn(C)c(OC(F)F)c2Cl)c1NC(=O)C(C)Oc1ccccc1` (stereo not drawn) [Compound 1-33], for which the “Pre-emergence Herbicidal Activity ECHCG (growth controlling degree)” value amounted to 30%.

The subject of the next test is crabgrass (Digitaria sanguinalis L.): DIGSA. The experiment in a line: Test Example 1 pre-emergence herbicidal activity, DIGSA. The test is classed as in vivo. The note with it: Rate 63 g a.i./ha, visually observed 20th to 23rd day after application. Put shortly:
as §1
For the compound `COc1c(Cl)cc(F)c(-c2nn(C)c(OC(F)F)c2Cl)c1NC(=O)C(C)Oc1ccccc1` (stereo not drawn) [Compound 1-33], the “Pre-emergence Herbicidal Activity DIGSP (growth controlling degree)” value is given as 40%.

The subject of another test is green foxtail (Setaria viridis L.): SETVI. The test can be described thus: Test Example 1 pre-emergence herbicidal activity, SETVI. Type of test: in vivo. The following applies: Rate 63 g a.i./ha, visually observed 20th to 23rd day after application. In a few lines: as §1
For `COc1c(Cl)cc(F)c(-c2nn(C)c(OC(F)F)c2Cl)c1NC(=O)C(C)Oc1ccccc1` (stereo not drawn) [Compound 1-33], the “Pre-emergence Herbicidal Activity SETVI (growth controlling degree)” value was determined as 50%.

The next test has as its system redroot pigweed (Amaranthus retroflexus L.): AMARE. The test can be described thus: Test Example 1 pre-emergence herbicidal activity, AMARE. The note with it: Rate 63 g a.i./ha, visually observed 20th to 23rd day after application. The test is classed as in vivo. Put shortly: as §1
For `COc1c(Cl)cc(F)c(-c2nn(C)c(OC(F)F)c2Cl)c1NC(=O)C(C)Oc1ccccc1` (stereo not drawn) [Compound 1-33], the “Pre-emergence Herbicidal Activity AMARE (growth controlling degree)” value came to 95%.

Another test deals with prickly sida (Sida spinosa L.): SEDSP. The test can be described thus: Test Example 1 pre-emergence herbicidal activity, SIDSP. Type of test: in vivo. The note with it: Rate 63 g a.i./ha, visually observed 20th to 23rd day after application. In a few lines:
as §1
For `COc1c(Cl)cc(F)c(-c2nn(C)c(OC(F)F)c2Cl)c1NC(=O)C(C)Oc1ccccc1` (stereo not drawn) [Compound 1-33], the “Pre-emergence Herbicidal Activity SIDSP (growth controlling degree)” value stood at 50%.

A further test relates to velvetleaf (Abutilon theophrasti): ABUTH. The experiment in a line: Test Example 1 pre-emergence herbicidal activity, ABUTH. Type of test: in vivo. The following applies: Rate 63 g a.i./ha, visually observed 20th to 23rd day after application. Put shortly:
as §1
Regarding `COc1c(Cl)cc(F)c(-c2nn(C)c(OC(F)F)c2Cl)c1NC(=O)C(C)Oc1ccccc1` (stereo not drawn) [Compound 1-33], the “Pre-emergence Herbicidal Activity ABUTH (growth controlling degree)” value stood at 40%.

The subject of another test is rice (Oryza sativa L.): ORYSA. The test can be described thus: Test Example 1 pre-emergence herbicidal activity, ORYSA. The test is classed as in vivo. The following applies: Rate 63 g a.i./ha, visually observed 20th to 23rd day after application. In a few lines:
as §1
Take `COc1c(Cl)cc(F)c(-c2nn(C)c(OC(F)F)c2Cl)c1NC(=O)C(C)Oc1ccccc1` (stereo not drawn) [Compound 1-33]: the “Pre-emergence Herbicidal Activity ORYSA (growth controlling degree)” value was found to be 10%.

The subject of the next test is wheat (Triticum aestivum L.): TRZAX. The experiment in a line: Test Example 1 pre-emergence herbicidal activity, TRZAX. The note with it: Rate 63 g a.i./ha, visually observed 20th to 23rd day after application. The test is classed as in vivo. In a few lines:
as §1
As for `COc1c(Cl)cc(F)c(-c2nn(C)c(OC(F)F)c2Cl)c1NC(=O)C(C)Oc1ccccc1` (stereo not drawn) [Compound 1-33], the “Pre-emergence Herbicidal Activity TRZAX (growth controlling degree)” value is listed as 10%.

For the next test, the system named is corn (Zea mays L.): ZEAMX. The experiment in a line: Test Example 1 pre-emergence herbicidal activity, ZEAMX. The test is classed as in vivo. The following applies: Rate 63 g a.i./ha, visually observed 20th to 23rd day after application. In a few lines: as §1
On to `COc1c(Cl)cc(F)c(-c2nn(C)c(OC(F)F)c2Cl)c1NC(=O)C(C)Oc1ccccc1` (stereo not drawn) [Compound 1-33], for which the “Pre-emergence Herbicidal Activity ZEAMX (growth controlling degree)” value amounted to 0%.

For the next test, the system named is soybean (Glycine max Merr.): GLXMA. The experiment in a line: Test Example 1 pre-emergence herbicidal activity, GLXMA. The test is classed as in vivo. The note with it: Rate 63 g a.i./ha, visually observed 20th to 23rd day after application. In a few lines:
as §1
On to `COc1c(Cl)cc(F)c(-c2nn(C)c(OC(F)F)c2Cl)c1NC(=O)C(C)Oc1ccccc1` (stereo not drawn) [Compound 1-33], for which the “Pre-emergence Herbicidal Activity GLXMA (growth controlling degree)” value stood at 0%.

For the next test, the system named is barnyardgrass (Echinochloa crus-galli L.), ECHCG. The test can be described thus: Test Example 2 post-emergence (foliage treatment) herbicidal activity, ECHCG. The test is classed as in vivo. The following applies: 63 g a.i./ha. In a few lines:
(§2)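 Each species was evaluated for growth suppression by eye, 0% matching untreated and 100% meaning death, some 20 to 23 days after a single post-emergence foliar treatment applied in 500 L/ha of water carrying 0.1% (v/v) agricultural spreader.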
Regarding `COc1c(Cl)cc(F)c(-c2nn(C)c(OC(F)F)c2Cl)c1NC(=O)C(C)Oc1ccccc1` (stereo not drawn) [Compound 1-33], the “growth controlling degree, ECHCO” value is 80%.

A further test has as its system crabgrass (Digitaria sanguinalis L.), DIGSA. The experiment in a line: Test Example 2 post-emergence (foliage treatment) herbicidal activity, DIGSA. Type of test: in vivo. The following applies: 63 g a.i./ha. In a few lines: as §2
Regarding `COc1c(Cl)cc(F)c(-c2nn(C)c(OC(F)F)c2Cl)c1NC(=O)C(C)Oc1ccccc1` (stereo not drawn) [Compound 1-33], the “growth controlling degree, DIGSP” value was 70%.

A further test concerns green foxtail (Setaria viridis L.), SETVI. The experiment in a line: Test Example 2 post-emergence (foliage treatment) herbicidal activity, SETVI. The following applies: 63 g a.i./ha. Type of test: in vivo. In a few lines:
(§3)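 A small sprayer delivered the diluted WP or EC formulation (500 L/ha water, 0.1% v/v spreader) over emerged seedlings in upland soil pots. Damage relative to untreated plants was graded visually from 0 to 100% three weeks or so later (days 20-23).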
In the case of `COc1c(Cl)cc(F)c(-c2nn(C)c(OC(F)F)c2Cl)c1NC(=O)C(C)Oc1ccccc1` (stereo not drawn) [Compound 1-33], the “growth controlling degree, SETVI” value was determined as 98%.

Another test deals with redroot pigweed (Amaranthus retroflexus L.), AMARE. The test can be described thus: Test Example 2 post-emergence (foliage treatment) herbicidal activity, AMARE. The following applies: 63 g a.i./ha. The test is classed as in vivo. In a few lines:
as §2
Take `COc1c(Cl)cc(F)c(-c2nn(C)c(OC(F)F)c2Cl)c1NC(=O)C(C)Oc1ccccc1` (stereo not drawn) [Compound 1-33]: the “growth controlling degree, AMARE” value is given as 100%.

For the next test, the system named is prickly sida (Sida spinosa L.), SIDSP. The test can be described thus: Test Example 2 post-emergence (foliage treatment) herbicidal activity, SIDSP. The test is classed as in vivo. The following applies: 63 g a.i./ha. In a few lines:
as §3
As to `COc1c(Cl)cc(F)c(-c2nn(C)c(OC(F)F)c2Cl)c1NC(=O)C(C)Oc1ccccc1` (stereo not drawn) [Compound 1-33], the “growth controlling degree, SIDSP” value stood at 100%.

The next test relates to velvetleaf (Abutilon theophrasti), ABUTH. The experiment in a line: Test Example 2 post-emergence (foliage treatment) herbicidal activity, ABUTH. Type of test: in vivo. The following applies: 63 g a.i./ha. In a few lines: as §3
For `COc1c(Cl)cc(F)c(-c2nn(C)c(OC(F)F)c2Cl)c1NC(=O)C(C)Oc1ccccc1` (stereo not drawn) [Compound 1-33], the “growth controlling degree, ABUTH” value came to 100%.

The next test deals with rice (Oryza sativa L.), ORYSA. The test can be described thus: Test Example 2 post-emergence (foliage treatment) herbicidal activity, ORYSA. The note with it: 63 g a.i./ha. The test is classed as in vivo. In a few lines:
as §2
Take `COc1c(Cl)cc(F)c(-c2nn(C)c(OC(F)F)c2Cl)c1NC(=O)C(C)Oc1ccccc1` (stereo not drawn) [Compound 1-33]: the “growth controlling degree, ORYSA” value turned out to be 50%.

For another test, the system named is wheat (Triticum aestivum L.), TRZAX. The experiment in a line: Test Example 2 post-emergence (foliage treatment) herbicidal activity, TRZAX. The test is classed as in vivo. The note with it: 63 g a.i./ha. In a few lines:
as §3
As for `COc1c(Cl)cc(F)c(-c2nn(C)c(OC(F)F)c2Cl)c1NC(=O)C(C)Oc1ccccc1` (stereo not drawn) [Compound 1-33], the “growth controlling degree, TRZAX” value amounted to 30%.

For another test, the system named is corn (Zea mays L.), ZEAMX. The experiment in a line: Test Example 2 post-emergence (foliage treatment) herbicidal activity, ZEAMX. The test is classed as in vivo. The following applies: 63 g a.i./ha. Put shortly: as §3
Turning to `COc1c(Cl)cc(F)c(-c2nn(C)c(OC(F)F)c2Cl)c1NC(=O)C(C)Oc1ccccc1` (stereo not drawn) [Compound 1-33], the “growth controlling degree, ZEAMX” value turned out to be 60%.

For the next test, the system named is soybean (Glycine max Merr.), GLXMA. The test can be described thus: Test Example 2 post-emergence (foliage treatment) herbicidal activity, GLXMA. The test is classed as in vivo. The following applies: 63 g a.i./ha. Put shortly: as §3
Turning to `COc1c(Cl)cc(F)c(-c2nn(C)c(OC(F)F)c2Cl)c1NC(=O)C(C)Oc1ccccc1` (stereo not drawn) [Compound 1-33], the “growth controlling degree, GLXMA” value was 60%.

A further test has as its system barnyardgrass (Echinochiloa oryzicola: ECHOR). The experiment in a line: Test Example 3 water application herbicidal activity (paddy), ECHOR. The test is classed as in vivo. The following applies: 63 g a.i./ha, water application under submerged condition at 0.5 leaf stage, visually observed 14th day after application; 0 = untreated control, 100 = complete kill. In a few lines: (§4)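 Submerged application in flooded paddy soil (3–4 cm water); weeds treated at 0.5-leaf stage, transplanted rice 4 d after transplanting. Scored visually as % growth control: weeds at 14 d, rice at 21 d.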
As for `COc1c(Cl)cc(F)c(-c2nn(C)c(OC(F)F)c2Cl)c1NC(=O)C(C)Oc1ccccc1` (stereo not drawn) [Compound 1-33], the “growth controlling degrees (%) ECHOR” value is given as 100%.

In a further test the test system is japanese bulrush (Scirpus juncoides: SCPJO). The experiment in a line: Test Example 3 water application herbicidal activity (paddy), SCPJO. Type of test: in vivo. The note with it: 63 g a.i./ha, water application under submerged condition at 0.5 leaf stage, visually observed 14th day after application; 0 = untreated control, 100 = complete kill. In a few lines:
as §4
As to `COc1c(Cl)cc(F)c(-c2nn(C)c(OC(F)F)c2Cl)c1NC(=O)C(C)Oc1ccccc1` (stereo not drawn) [Compound 1-33], the “growth controlling degrees (%) SCPJO” value is listed as 40%.

For a further test, the system named is japanese ribbon wapato (Sagittaria pygmaea: SA GPY). The test can be described thus: Test Example 3 water application herbicidal activity (paddy), SAGPY. The test is classed as in vivo. The note with it: 63 g a.i./ha, water application under submerged condition, tubers planted, visually observed 14th day after application; 0 = untreated control, 100 = complete kill. Put shortly: as §4
Turning to `COc1c(Cl)cc(F)c(-c2nn(C)c(OC(F)F)c2Cl)c1NC(=O)C(C)Oc1ccccc1` (stereo not drawn) [Compound 1-33], the “growth controlling degrees (%) SAGPY” value turned out to be 98%.

A further test concerns rice (Oryza sativa L.: ORYSA). The experiment in a line: Test Example 3 water application herbicidal activity (paddy), transplanted rice ORYSA. Type of test: in vivo. The note with it: 63 g a.i./ha, water application 4th day after transplantation of 2 leaf stage rice, visually observed 21st day after application; 0 = untreated control, 100 = complete kill. Put shortly: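 Flooded paddy-soil pots in greenhouse; ECHOR and SCPJO sown, SAGPY tubers planted a day later, compound applied into 3–4 cm water at weeds' 0.5-leaf stage. Rice transplanted at 2-leaf stage, treated day 4 after transplanting. Visual growth control 0–100% at 14 days (weeds) and 21 days (rice) after application.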
With `COc1c(Cl)cc(F)c(-c2nn(C)c(OC(F)F)c2Cl)c1NC(=O)C(C)Oc1ccccc1` (stereo not drawn) [Compound 1-33], the “growth controlling degrees (%) ORYSA” value is 35%.
